ChEMBL document CHEMBL3400085, “New cytochalasins from medicinal macrofungus Crodyceps taii and their inhibitory activities against human cancer cells” (Bioorg Med Chem Lett, 2015)

Columns and labels:
[1] = Cytotoxicity against human 95-D cells assessed as inhibition of proliferation by SRB method; type: functional, cell-based
A549 = assay: Cytotoxicity against human A549 cells assessed as inhibition of proliferation by SRB method; type: functional, cell-based
[2] = Cytotoxicity against human HL-7702 cells assessed as inhibition of proliferation by SRB method; type: functional, cell-based; conditions: L02
MRC5 = assay: Cytotoxicity against human MRC5 cells assessed as inhibition of proliferation by SRB method; type: cell-based

SMILES	IC50 [1]	IC50 (A549)	IC50 [2]	IC50 (MRC5)
CC1=C(C)[C@H]2[C@H](Cc3ccccc3)NC(=O)[C@]23[C@H](O)/C=C/[C@H](C)C(=O)[C@@H](C)C/C=C/[C@H]3C1=O	23.7 µM	32.3 µM	29.8 µM	> 200 µM
CC1=C(C)[C@H]2[C@H](Cc3ccccc3)NC(=O)[C@]23[C@H](O)/C=C/[C@H](C)C(=O)[C@@H](C)C/C=C/[C@H]3[C@@H]1O	26 µM	17.1 µM	35.7 µM	> 200 µM
CC1=C[C@@H]2/C=C/C[C@H](C)C(=O)[C@](C)(O)/C=C/[C@@H](O)[C@]23C(=O)N[C@@H](Cc2ccccc2)[C@@H]3[C@H]1C	20.7 µM	19.9 µM	30.9 µM	> 200 µM
CC1=C(C)[C@H]2[C@H](Cc3ccccc3)NC(=O)[C@]23[C@H](O)/C=C/[C@@](C)(O)C(=O)[C@@H](C)C/C=C/[C@H]3[C@@H]1O [DEACETYLCYTOCHALASIN C]	3.67 µM	13.6 µM	31.1 µM	> 200 µM
C=C1[C@@H](C)[C@H]2[C@H](Cc3ccccc3)NC(=O)[C@]23[C@H](O)/C=C/[C@@](C)(O)C(=O)[C@@H](C)C/C=C/[C@H]3[C@@H]1O [ZYGOSPORIN D]	4.04 µM	16.7 µM	30.2 µM	> 200 µM
